# Experimental data taken from patent US5153352A, “Process for preparation of intermediates of carbocyclic nucleoside analogs” (priority 1990, dated 1992).
# Legend:
# [1] = tested on: Varicella-Zoster Virus; assay: microbe, parasite or virus in culture; assay type: cell-based, Varicella-Zoster virus (clinical isolate DM625); conditions: Human alphaherpesvirus 3, Fibroblast, 120 h
# [2] = compound cytotoxicity in ATH8 cells (HIV CPE inhibition assay); assay type: cell-based; conditions: human, read-out: MTC
# Experimental: The ATH8 human T-cell line expresses high levels of the CD4 surface antigen and is quite sensitive to the cytopathogenic effect (CPE) of HIV. The cells were propagated in RPMI 1640 medium supplemented with 4mM glutamine, 15% heat-inactivated fetal bovine serum (Biocell), antibiotics (50 units of penicillin and […] of streptomycin per ml), and 50 units of recombinant-derived human interleukin-2 (ala-125; AMGen Biologicals) per ml.
# ATH8 cells were used as the primary target in the HIV induced CPE inhibition assay. Cells were treated with polybrene (2 ug/ml in growth medium) for 30 minutes at 37° C., then collected by gentle centrifugation (40×g for 15 minutes at room temperature) and resuspended in clarified (8000×g for 15 minutes at 4° C.) supernate freshly harvested from 48 hours post passage H9/HTL IIIB cells. Following a 60-minute adsorption period at 37° C., the cells were dispensed into the U-bottom wells of 96-well trays (1×10^4 cells in 0.1 ml per well). […] Test compounds were evaluated at seven half-log dilutions ranging from 100 uq/ml to 0.1 uq/ml. […]
# Between 7 and 10 days post infection, all wells were visually monitored for the degree of CPE inhibition as reflected by cell pellet size, and aliquots were taken from selected wells for determination of cell number and viability (based on trypan blue dye exclusion).
Compound,"EC50 ([1]; VZV plaque formation, human foreskin fibroblasts, read-out: MIC50) [µg/mL]","inhibition at 0.1 µg/mL ([1]; VZV, 0.1 ug/ml, read-out: Plaque Reduction) [%]","inhibition at 0.32 µg/mL ([1]; VZV, 0.32 ug/ml, read-out: Plaque Reduction) [%]","inhibition at 1 µg/mL ([1]; VZV, 1.0 ug/ml, read-out: Plaque Reduction) [%]","inhibition at 3.2 µg/mL ([1]; VZV, 3.2 ug/ml, read-out: Plaque Reduction) [%]","inhibition at 10 µg/mL ([1]; VZV, 10 ug/ml, read-out: Plaque Reduction) [%]","inhibition at 32 µg/mL ([1]; VZV, 32 ug/ml, read-out: Plaque Reduction) [%]",inhibition at 100 µg/mL ([1]; read-out: Plaque Reduction) [%],MCC [2] [µg/mL]
"Nc1nc2c(ncn2C2CC(CO)C2CO)c(=O)[nH]1 (stereo not drawn) [Example 1I, 9-(2',3'-Bis(hydroxymethyl)cyclobutyl)guanine]",1.4,11.5,18,47.1,97.7,100,100,100,
"Nc1ncnc2c1ncn2C1CC(CO)C1CO (stereo not drawn) [Example 4C, 9-(2',3'-Bis(hydroxymethyl)cyclobutyl)adenine]",,,,,,,,,3.2
